Where a SMILES comes first, the peptide text is derived from it. Where no end group is shown, it is not given here. The star is where a group is joined. Myristoyl = CCCCCCCCCCCCCC(=O)*
Tests used:
HL-60 clone 15 cells = assay: PMA-stimulated EPO release from HL-60 clone 15 cells; format: cell-based, human; settings: for % Inhibition EPO: 50 μM test peptide, two hour incubation with 100 nM PMA, HL-60 clone 15 cells
Method: Three types of human leukocyte cell lines, specifically the promyelocytic cell line HL-60 clone 15, the monocytic cell line U937, and the lymphocyte natural killer cell line NK-92 were purchased from American Type Culture Collection (ATCC; Rockville, MD). HL-60 clone 15 cells (ATCC CRL-1964) were maintained in medium consisting of RPMI 1640 with L-glutamine supplemented with 10% heat-inactivated fetal bovine serum (Gibco; Invitrogen Co., Carlsbad, CA), 50 IU/ml penicillin, 50 μg/mL streptomycin, and 25 mM HEPES buffer, pH 7.8, at 37° C. in an atmosphere containing 5% CO2. Final differentiation to an eosinophil-like phenotype was initiated by culturing cells at 5×10^5 cells/ml in the above medium containing 0.5 mM butyric acid (Sigma-Aldrich Co.) for 5 days as previously described (Tiffany H L, Li F, Rosenberg H F. Hyperglycosylation of eosinophil ribonucleases in a promyelocytic leukemia cell line and in differentiated peripheral blood progenitor cells. J Leukoc Biol 1995; 58:49-54; Tiffany H L, Alkhatib G, Combadiere C, Berger E A, Murphy P M. CC chemokine receptors 1 and 3 are differentially regulated by IL-5 during maturation of eosinophilic HL-60 cells. J Immunol 1998; 160:1385-1392). U937 cells (ATCC CRL-1593.2) were grown at 37° C. in an atmosphere of 5% CO2 in complete medium consisting of RPMI 1640 with L-glutamine supplemented with 10% FBS, 50 IU/ml penicillin, and 50 μg/mL streptomycin. NK-92 cells (ATCC CRL-2407) were maintained in alpha-MEM medium (Sigma-Aldrich Co.) supplemented with 20% FBS, 100 U/ml of interleukin-2 (IL-2) (Chemicon International, Inc., Temecula, CA), 5×10^−5 M of 2-mercaptoethanol, 50 IU/mL penicillin, and 50 μg/ml streptomycin at 37° C. in an atmosphere containing 5% CO2. Cell morphology was judged by assessment of Wright-Giemsa-stained cells. Viability of cells harvested for experiments was assessed by trypan blue exclusion and populations of cells with viability >95% were used.
HL-60 clone 15, U937, and NK-92 cells were washed and resuspended at 2.5×10^6 cells/ml in phenol red-free RPMI-1640 (Cellgro; Mediatech, Inc.) for all degranulation assays. Aliquots of cells in 15 ml tubes were preincubated with indicated concentrations of MANS, RNS, or a test peptide for 10 min at 37° C. The cells then were stimulated with PMA for up to 2 hr. A control reference (PMA control reference) was established for each cell type using HL-60 clone 15, U937, and NK-92 cells, respectively, which were washed and resuspended at 2.5×10^6 cells/ml in phenol red-free RPMI-1640 and stimulated with PMA but in the absence of MANS, RNS, or a test peptide for the same time periods. The reaction was terminated by placing tubes on ice and centrifuging cells at 400 g for 5 min at 4° C.
(§1) For measurements of released MPO from neutrophils and released lysozyme from U937 cells, we were able to quantify secretion by using as standards human MPO and egg white […], respectively. For released EPO from HL-60 clone 15 cells and for released granzyme from NK-92 cells, no standards were available to use for quantification. […] To measure intracellular EPO in HL-60 clone 15 cells and intracellular granzyme in NK-92 cells, appropriate aliquots of 0.1% triton X-100-lysed cells were taken for quantification of intracellular granule proteins as described below. All treatments were expressed as percentage of control to minimize variability between cultures.
EPO activity released by HL-60 clone 15 cells was assayed using TMB according to a previously established technique (Lacy P, Mahmudi-Azer S, Bablitz B, Hagen S C, Velazquez J R, Man S F, Moqbel R. Rapid mobilization of intracellularly stored RANTES in response to interferon-gamma in human eosinophils. Blood 1999; 94:23-32). Thus, 100 μL of TMB substrate solution was added to 50 μL=microliters) of sample in a 96-well microplate and incubated at room temperature for 15 min (min=minutes). […]

NK-92 cells = assay: PMA-stimulated granzyme release from NK-92 cells (BLT hydrolysis); format: cell-based, human; settings: 50 μM test peptide, two hour incubation with 100 nM PMA
Method: Three types of human leukocyte cell lines, specifically the promyelocytic cell line HL-60 clone 15, the monocytic cell line U937, and the lymphocyte natural killer cell line NK-92 were purchased from American Type Culture Collection (ATCC; Rockville, MD). HL-60 clone 15 cells (ATCC CRL-1964) were maintained in medium consisting of RPMI 1640 with L-glutamine supplemented with 10% heat-inactivated fetal bovine serum (Gibco; Invitrogen Co., Carlsbad, CA), 50 IU/ml penicillin, 50 μg/mL streptomycin, and 25 mM HEPES buffer, pH 7.8, at 37° C. in an atmosphere containing 5% CO2. […] Viability of cells harvested for experiments was assessed by trypan blue exclusion and populations of cells with viability >95% were used. […]
as §1, with “cultures. […]” for “cultures.”

[1] = test system: isolated human neutrophils; assay: MPO secretion from isolated human neutrophils stimulated with PMA + 8-Br-cGMP (FIG. 7, 8, 9); format: cell-based; settings: for MPO secretion: FIG. 7, 100 nM PMA and 10 μM 8-Br-cGMP
[2] = Qualitative solubility of peptides in 0.5 N saline, pH 6.5

For `CCCCCCCCCCCCCC(=O)NCC(=O)N[C@@H](C)C(=O)N[C@@H](CCC(N)=O)C(=O)N[C@@H](Cc1ccccc1)C(=O)N[C@@H](CO)C(=O)N[C@@H](CCCCN)C(=O)N[C@H](C(=O)N[C@@H](C)C(=O)N[C@@H](C)C(=O)N[C@@H](CCCCN)C(=O)NCC(=O)N[C@@H](CCC(=O)O)C(=O)N[C@@H](C)C(=O)N[C@@H](C)C(=O)N[C@@H](C)C(=O)N[C@@H](CCC(=O)O)C(=O)N[C@@H](CCCNC(=N)N)C(=O)N1CCC[C@H]1C(=O)NCC(=O)N[C@@H](CCC(=O)O)C(=O)N[C@@H](C)C(=O)N[C@@H](C)C(=O)N[C@H](C(=O)N[C@@H](C)C(=O)O)C(C)C)[C@@H](C)O` [MANS] (Myristoyl-GAQFSKTAAKGEAAAERPGEAAVA-OH; C-terminus assumed), the “reduction in EPO activity relative to the PMA control reference” value (HL-60 clone 15 cells; 10 μM, 1 hour) was “about 15%”, the “EPO activity relative to control as 100%” value (HL-60 clone 15 cells; 10 μM, 1 hour, PMA control reference about 110%) was “about 95%” and the “reduction in EPO activity relative to the PMA control reference” value (HL-60 clone 15 cells; 10 μM, 2 hour) was “about 10%”. For the same molecule, the “EPO activity relative to control as 100%” value (HL-60 clone 15 cells; 10 μM, 2 hour, PMA control reference about 145%) was “about 130%”, the “% Inhibition EPO” value (HL-60 clone 15 cells) was 46.1% and the “reduction in EPO activity relative to the PMA control reference” value (HL-60 clone 15 cells; 50 μM, 1 hour) was “about 30%”. The “EPO activity relative to control as 100%” value (HL-60 clone 15 cells; 50 μM, 1 hour, PMA control reference about 110%) was “about 78%”, the “reduction in EPO activity relative to the PMA control reference” value (HL-60 clone 15 cells; 50 μM, 2 hour) was “about 50%” and the “EPO activity relative to control as 100%” value (HL-60 clone 15 cells; 50 μM, 2 hour, PMA control reference about 145%) was “about 70%”. The “reduction in EPO activity relative to the PMA control reference” value (HL-60 clone 15 cells; 100 μM, 1 hour) was “about 40%”, the “EPO activity relative to control as 100%” value (HL-60 clone 15 cells; 100 μM, 1 hour, PMA control reference about 110%) was “about 65%” and the “reduction in EPO activity relative to the PMA control reference” value (HL-60 clone 15 cells; 100 μM, 2 hour) was “about 50%”. The “EPO activity relative to control as 100%” value (HL-60 clone 15 cells; 100 μM, 2 hour, PMA control reference about 145%) was “about 72%”, the “% Inhibition Granzyme” value (NK-92 cells) was 76.0% and the MPO secretion ([1]; 10 μM peptide) was “slight decrease”. The MPO secretion ([1]; 100 μM peptide) was “decreased secretion of MPO to control levels”.
For `CCCCCCCCCCCCCC(=O)O[C@@H]1[C@@H](C)[C@@]2(O)[C@@H](C=C(CO)C[C@]3(O)C(=O)C(C)=C[C@@H]23)[C@@H]2C(C)(C)[C@]12OC(C)=O` [PMA, phorbol 12-myristate 13-acetate], the “MPO secretion from LPS-stimulated human neutrophils” value ([1]; FIG. 8, PMA alone, enhanced concentration-dependently by co-stimulation with 8-Br-cGMP) was “small increase”.
For `CCCCCCCCCCCCCC(=O)NCC(=O)N[C@H](C(=O)N[C@@H](C)C(=O)N1CCC[C@H]1C(=O)N[C@@H](C)C(=O)N[C@@H](C)C(=O)N[C@@H](CCC(=O)O)C(=O)NCC(=O)N[C@@H](C)C(=O)NCC(=O)N[C@@H](C)C(=O)N[C@@H](CCC(=O)O)C(=O)N[C@H](C(=O)N[C@@H](CCCCN)C(=O)N[C@@H](CCCNC(=N)N)C(=O)N[C@@H](C)C(=O)N[C@@H](CO)C(=O)N[C@@H](C)C(=O)N[C@@H](CCC(=O)O)C(=O)N[C@@H](C)C(=O)N[C@@H](CCCCN)C(=O)N[C@@H](CCC(N)=O)C(=O)N[C@@H](C)C(=O)N[C@@H](Cc1ccccc1)C(=O)O)C(C)C)[C@@H](C)O` [RNS, reference compound] (Myristoyl-GTAPAAEGAGAEVKRASAEAKQAF-OH; C-terminus assumed), the “% Inhibition EPO” value (HL-60 clone 15 cells) was 0%, the “effect on PMA-enhanced EPO release” value (HL-60 clone 15 cells; any of the time points or concentrations tested) was “did not affect” and the “% Inhibition Granzyme” value (NK-92 cells) was 29.5%. The MPO secretion ([1]; 10 or 100 μM peptide) was “no effect” and the solubility [2] was > 15 mg/mL.
In the case of Ac-GAQFSKTAAK [Ac-GAQFSKTAAK], the “% Inhibition EPO” value (HL-60 clone 15 cells) is reported as 35.7% and the solubility [2] is reported as > 100 mg/mL.
For Ac-GAQFSKTAAKGEAAAERPGEAAVA, the “% Inhibition EPO” value (HL-60 clone 15 cells) was 33.7% and the solubility [2] was > 250 mg/mL.

— patent US20230293629A1, “METHODS FOR ATTENUATING RELEASE OF INFLAMMATORY MEDIATORS AND PEPTIDES USEFUL THEREIN” (BIOMARCK PHARMACEUTICALS LTD., priority 2006, published 2023)
